Results taken from patent US6884796B2, “Meiosis regulating compounds” (NovoNordisk A/S, priority 1998, dated 2005).

Tests used:
naked oocytes (NO) [1] = assay: Agonistic oocyte assay: germinal vesicle breakdown and polar body formation in naked oocytes cultured in Hx-medium; format: cell-based, mice; conditions: 10 mikroM; for mean % GVB / mean % PB: naked oocytes (NO) cultured in vitro for 24 hours in Hx-medium; for mean Relative Effect: naked oocytes (NO), 24 hours, indexed: control = 0, FF-MAS = 100
Protocol: An agonistic oocyte assay can be performed as follows:
Oocytes were obtained from immature female mice (C57BU6J x DBA/2J F1, Bomholtgaard, Denmark) weighing 13-16 grams, that were kept under controlled temperature (20-22° C.), light (lights on 06.00-18.00) and relative humidity (50-70%). The mice received an intra-peritoneal injection of 0.2 ml gonadotropins (Gonal-F, Serono) containing 20 IU FSH and 48 hours later the animals were killed by cervical dislocation.
The ovaries were dissected out and the oocytes were isolated in Hx-medium (see below) under a stereo microscope by manual rupture of the follicles using a pair of 27 gauge needles. Spherical oocytes displaying an intact germinal vesicle (hereinafter designated GV) were divided in cumulus enclosed oocytes (hereinafter designated CEO) and naked oocytes (hereinafter designated NO) and placed in a-minimum essential medium (α-MEM without ribonucleosides, Gibco BRL, Cat. No. 22561) supplemented with 3 mg/ml bovine serum albumin (BSA, Sigma Cat. No. A-7030), 5 mg/ml human serum albumin (HSA, Statens Seruminstitute, Denmark), 0.23 mM pyruvate (Sigma, Cat. No S-8636), 2 mM glutamine (Flow Cat. No. 16-801), 100 IU/ml penicillin and 100 μg/ml streptomycin (Flow, Cat No. 16-700). This medium was supplemented with 3 mM hypoxanthine (Sigma Cat. No. H-9377) and designated Hx-medium.
The oocytes were rinsed three times in Hx-medium and oocytes of uniform size were divided into groups of CEO and NO. CEO and NO were cultured in 4-well multidishes (Nunclon, Denmark) in which each well contained 0.4 ml of Hx-medium. One control well (i.e., 35-45 oocytes cultured in identical medium with no addition of test compound) was always cultured simultaneously with 3 test wells (35-45 oocytes per well supplemented with test compound).
The oocytes were cultured in a humidified atmosphere of 5% CO2 in air for 24 hours at 37° C. By the end of the culture period, the number of oocytes with germinal vesicle (hereinafter designated GV), germinal vesicle breakdown (hereinafter designated GVB) and polar bodies (hereinafter designated PB), respectively, were counted using a stereomicroscope (Wildt, Leica MZ 12). The percentage GVB, defined as percentage of oocytes undergoing GVB per total number of oocytes in that well, was calculated as: % GVB=(number of GVB+number of PB/total number oocytes)×100.
The % PB was defined as percentage of oocytes displaying one extruded polar body per total number of oocytes in that well.
The effect of the tested compounds has been indexed against control level and 4,4-dimethyl-5α-cholesta-8,14,24-trien-3β-ol (hereinafter designated FF-MAS) where controls and FF-MAS are indexed to an effect of 0 and 100, respectively. The relative effect of the tested compound is calculated as follows: Relative effect=((test GVB %−control GVB %)/(FF-MAS GVB %−control GVB %))×100. Results

naked oocytes (NO) [2] = conditions: Byskov et al. Nature 374 (1995), 559-562; cited from earlier work

## COC(=O)CC[C@@H](C)[C@H]1CC=C2C3=C(CC[C@@]21C)[C@@]1(C)CC[C@H](O)C(C)(C)[C@@H]1CC3
other
  melting point: 156 to 157 °C

## C[C@H](CCC(N)=O)[C@H]1CC=C2C3=C(CC[C@@]21C)[C@@]1(C)CC[C@H](O)C(C)(C)[C@@H]1CC3
other
  melting point: 233 to 235 °C

## CC(=O)NCCC[C@@H](C)[C@H]1CC=C2C3=C(CC[C@@]21C)[C@@]1(C)CC[C@H](O)C(C)(C)[C@@H]1CC3
other
  melting point: 219 to 221 °C

## CCOC(=O)CC[C@@H](C)[C@H]1CC=C2C3=C(CC[C@@]21C)[C@@]1(C)CC[C@H](O)C(C)(C)[C@@H]1CC3
other
  melting point: 122 to 124 °C

## C[C@H](CCC(=O)O)[C@H]1CC[C@H]2C3=CC=C4C(C)(C)[C@@H](O)CC[C@]4(C)[C@H]3CC[C@]12C
other
  melting point: 210 to 213 °C

## CC(C)C(=O)CC[C@@H](C)[C@H]1CC=C2C3=C(CC[C@@]21C)[C@@]1(C)CC[C@H](O)C(C)(C)[C@@H]1CC3 [Example 6, 3β-Hydroxy4,4-dimethyl-5α-cholesta-8,14-dien-24-one]
Naked oocytes (NO) [1]
  mean % GVB: 88%
  mean % PB: 11%
  mean Relative Effect: 110

## C[C@H](CCCNc1ccccc1)[C@H]1CC=C2C3=C(CC[C@@]21C)[C@@]1(C)CC[C@H](O)C(C)(C)[C@@H]1CC3
other
  melting point: 178 to 180 °C

## Cc1ccc(C[C@@H](C)[C@H]2CC=C3C4=C(CC[C@@]32C)[C@@]2(C)CC[C@H](O)C(C)(C)[C@@H]2CC4)cc1 [Example 21, (20R)-4,4,20-Trimethyl-21-(4-methylphenyl)-5α-pregna-8,14-dien-3δ-ol]
Naked oocytes (NO) [1]
  mean % GVB: 82%
  mean % PB: 29.5%
  mean Relative Effect: 98

## C[C@H](CCC(=O)NC(C)(C)C)[C@H]1CC=C2C3=C(CC[C@@]21C)[C@@]1(C)CC[C@H](O)C(C)(C)[C@@H]1CC3
other
  melting point: 171 to 176 °C

## CC(C)=CCC[C@@H](C)[C@H]1CC=C2C3=C(CC[C@@]21C)[C@@]1(C)CC[C@H](O)C(C)(C)[C@@H]1CC3 [FF-MAS, 4,4-dimethyl-5α-cholesta-8,14,24-trien-3β-ol, reference compound]
Naked oocytes (NO) [2]
  induction of meiosis in NO in vitro: induce meiosis
Naked oocytes (NO) [1]
  mean % GVB: 86.1%
  mean % PB: 28.5%
  mean Relative Effect: 100

## C[C@H](CCC(=O)Nc1ccccc1)[C@H]1CC=C2C3=C(CC[C@@]21C)[C@@]1(C)CC[C@H](O)C(C)(C)[C@@H]1CC3 [Example 10, 3β-Hydroxy-4,4-dimethyl-5α-chola-8,14-dien-24-oic acid-N-phenyl amide]
Naked oocytes (NO) [1]
  mean % GVB: 10%
  mean % PB: 3%
  mean Relative Effect: −10

## C=C(C)CCC[C@@H](C)[C@H]1CC=C2C3=C(CC[C@@]21C)[C@@]1(C)CC[C@H](O)C(C)(C)C1CC3 (stereo partly drawn) [Example 33, 4,4-Dimethylcholest-8,14,25-trien-3β-ol]
Naked oocytes (NO) [1]
  mean % GVB: 70%
  mean % PB: 14.5%
  mean Relative Effect: 105

## COC(=O)CC[C@@H](C)[C@H]1CC[C@H]2C3=CC=C4C(C)(C)[C@@H](O)CC[C@]4(C)[C@H]3CC[C@]12C
other
  melting point: 124 to 128 °C

## C[C@H](CCC(=O)O)[C@H]1CC=C2C3=C(CC[C@@]21C)[C@@]1(C)CC[C@H](O)C(C)(C)[C@@H]1CC3 [Example 4, 3β-Hydroxy-4,4-dimethyl-5α-chola-8,14-dien-24-oic acid]
Naked oocytes (NO) [1]
  mean % GVB: 10.5%
  mean % PB: 3.5%
  mean Relative Effect: −10

## C[C@H](CCCOCc1ccccc1)[C@H]1CC=C2C3=C(CC[C@@]21C)[C@@]1(C)CC[C@H](O)C(C)(C)[C@@H]1CC3
other
  melting point: 114 to 115 °C

## C[C@H](CCCC(C(=O)O)C(=O)O)[C@H]1CC=C2C3=C(CC[C@@]21C)[C@@]1(C)CC[C@H](O)C(C)(C)[C@@H]1CC3
other
  melting point: 188 to 190 °C

## C[C@H](CCC(=O)OCc1ccccc1)[C@H]1CC=C2C3=C(CC[C@@]21C)[C@@]1(C)CC[C@H](O)C(C)(C)[C@@H]1CC3
other
  melting point: 118 to 119 °C

## C[C@H](CCC(=O)OC1CCCCC1)[C@H]1CC=C2C3=C(CC[C@@]21C)[C@@]1(C)CC[C@H](O)C(C)(C)[C@@H]1CC3
other
  melting point: 130 to 132 °C

## CC(=O)CC[C@@H](C)[C@H]1CC=C2C3=C(CC[C@@]21C)[C@@]1(C)CC[C@H](O)C(C)(C)[C@@H]1CC3
other
  melting point: 183 to 185 °C

## C[C@H](CC1CCCCC1)[C@H]1CC=C2C3=C(CC[C@@]21C)[C@@]1(C)CC[C@H](O)C(C)(C)[C@@H]1CC3 [Example 23, (20R), 4,20-Trimethyl-21-(cyclohexyl)-5α-pregna-8,14-dien-3β-ol]
Naked oocytes (NO) [1]
  mean % GVB: 73.5%
  mean % PB: 21.5%
  mean Relative Effect: 98
